Source: patent publication US20240270751A1, “Pyrazolopyridinone Compounds” (BeiGene Ltd., priority 2021, published 2024)

What was measured:
DGKζ = DGKζ (Homo sapiens (Human), UniProt Q13574); assay: Biochemical DGK IC50 assay, DGKζ ADP-Glo assay; conditions: 0.5 nM enzyme, 140 μM ATP, 80 μM DAG; read-out: DGKζ ADP-Glo assay IC50
Method: (§1) Enzymatic reactions of DGKζ, DGKα and DGKδ were performed using ADP-Glo assay with lipid micelle substrate. […] Full length DGKα (D21-10BG, SignalChem) and full length DGKδ (D23-10G, SignalChem) were purchased. Lipid micelle was prepared by dissolving DAG (Sigma, 317505-10MG) and PS (Sigma, P7769-100MG) with chloroform which was furtherly removed by rotary evaporation. The resulted product was resuspended in buffer containing 25 mM HEPES pH 7.0, 0.5 mM EDTA and 160 mM Octyl β-D glucopyranoside by vigorous mixing and ultrasonic (IID, Scientz).
(§2) The ranges of compounds final concentration were 1.55˜10000 nM or 23.3˜150000 nM. 3 μL 2× enzyme solution was added to wells.
Human His-TEV-DGK-zeta-pFastBac1 and human baculovirus samples was generated using the Bac-to-Bac baculovirus expression system (Invitrogen) according to the manufacturer's protocol. The DNA used for expression of DGK-zeta, have SEQ ID Nos: 1. Baculovirus amplification was achieved using infected SF9 cells at 1:2000 virus/cells ratios, and grown for 96 hours at 27° C. post-transfected.
The expression scaled up for each protein was carried out in the […] from CORNING. 4 L of 3×10^6 cells/mL Sf9 cells (Expression System, Invitrogen) grown in SF900™ II SFM insect medium (Expression System) was infected with virus stock at 1:200 virus/cells ratio, and grown for 48 hours at 27° C. post-transfection. The infected cell culture was harvested by centrifugation at 6000 rpm for 15 min 4° C. in a SORVALL LYNX6000 centrifuge. The cell pellets were stored at −80° C.
Full length human DGKζ produced as described above, was purified from Sf9 baculovirus-infected insect cell paste. The cells were lysed using sonication method, and the lysates were clarified by centrifugation.

DGKα = DGKα (Homo sapiens (Human), UniProt P23743); assay: Biochemical DGK IC50 assay, DGKα ADP-Glo assay; conditions: 7.5 nM enzyme, 140 μM ATP, 80 μM DAG
DGKα, sequence (P23743 whole entry): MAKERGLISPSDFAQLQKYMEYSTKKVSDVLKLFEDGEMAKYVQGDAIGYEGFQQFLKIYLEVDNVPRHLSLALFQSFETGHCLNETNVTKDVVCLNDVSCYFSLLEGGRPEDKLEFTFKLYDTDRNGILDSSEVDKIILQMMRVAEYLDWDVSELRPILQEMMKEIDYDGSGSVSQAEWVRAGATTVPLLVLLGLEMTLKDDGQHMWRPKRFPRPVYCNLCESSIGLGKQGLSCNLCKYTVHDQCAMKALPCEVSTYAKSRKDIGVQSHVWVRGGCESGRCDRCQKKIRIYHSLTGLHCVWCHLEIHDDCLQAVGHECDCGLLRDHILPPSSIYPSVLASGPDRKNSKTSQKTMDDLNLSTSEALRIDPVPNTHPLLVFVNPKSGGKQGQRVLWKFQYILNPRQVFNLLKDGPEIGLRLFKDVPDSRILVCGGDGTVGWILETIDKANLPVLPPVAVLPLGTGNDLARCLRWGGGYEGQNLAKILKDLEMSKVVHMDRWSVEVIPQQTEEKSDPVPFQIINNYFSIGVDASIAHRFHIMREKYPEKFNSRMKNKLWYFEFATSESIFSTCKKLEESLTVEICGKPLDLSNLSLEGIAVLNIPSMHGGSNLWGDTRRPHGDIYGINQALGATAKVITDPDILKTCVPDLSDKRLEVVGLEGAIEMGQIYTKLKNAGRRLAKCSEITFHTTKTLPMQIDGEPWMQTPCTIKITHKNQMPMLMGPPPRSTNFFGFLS
Method: as §1, §2

DGKζ, sequence (Q13574 other isoform, or with tags, fused parts or gaps): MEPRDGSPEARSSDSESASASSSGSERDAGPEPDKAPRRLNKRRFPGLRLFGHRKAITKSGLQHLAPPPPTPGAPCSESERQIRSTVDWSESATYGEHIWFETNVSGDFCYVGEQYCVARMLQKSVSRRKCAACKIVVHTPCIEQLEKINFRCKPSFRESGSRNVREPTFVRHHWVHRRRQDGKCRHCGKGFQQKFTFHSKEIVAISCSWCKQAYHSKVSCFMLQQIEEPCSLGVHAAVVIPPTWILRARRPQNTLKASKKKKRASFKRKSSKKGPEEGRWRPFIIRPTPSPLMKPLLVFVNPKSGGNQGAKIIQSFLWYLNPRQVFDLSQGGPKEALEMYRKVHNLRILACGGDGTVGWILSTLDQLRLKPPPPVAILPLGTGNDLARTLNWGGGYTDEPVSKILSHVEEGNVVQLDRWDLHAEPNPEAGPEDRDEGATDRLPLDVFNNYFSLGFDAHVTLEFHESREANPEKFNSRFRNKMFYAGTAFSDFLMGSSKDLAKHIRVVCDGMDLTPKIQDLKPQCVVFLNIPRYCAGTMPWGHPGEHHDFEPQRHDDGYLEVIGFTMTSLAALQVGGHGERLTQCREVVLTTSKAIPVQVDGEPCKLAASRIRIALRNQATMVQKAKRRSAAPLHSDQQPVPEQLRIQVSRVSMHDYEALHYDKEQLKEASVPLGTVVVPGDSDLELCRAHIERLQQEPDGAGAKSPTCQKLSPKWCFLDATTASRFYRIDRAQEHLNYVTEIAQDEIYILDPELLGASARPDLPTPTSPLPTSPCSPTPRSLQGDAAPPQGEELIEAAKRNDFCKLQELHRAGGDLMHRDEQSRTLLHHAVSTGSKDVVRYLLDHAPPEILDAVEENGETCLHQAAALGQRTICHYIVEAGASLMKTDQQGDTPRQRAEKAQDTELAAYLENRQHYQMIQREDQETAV

Row | SMILES | IC50 (DGKζ) | IC50 (DGKα)
1 | CC[C@H]1CN(C(C)c2ncc(C(F)(F)F)cc2F)[C@H](CC)CN1c1cc(=O)n(C)c2cn(CC#N)nc12 (single isomer, unassigned) [Compound A354b] | 260 nM | 0.13 µM
2 | CC#CCn1cc2c(n1)c(N1C[C@@H](C)N(C(C)c3ccc4nccnc4c3)C[C@@H]1C)cc(=O)n2C (mixture of isomers) [Compound A22, 2-(but-2-yn-1-yl)-7-((2S,5R)-2,5-dimethyl-4-(1-(quinoxalin-6-yl)ethyl)piperazin-1-yl)-4-methyl-2,4-dihydro-5H-pyrazolo[4,3-b]pyridin-5-one] | 94 nM | 0.2 µM
3 | CC[C@H]1CN(C(C)c2ccc(F)cc2F)[C@H](CC)CN1c1cc(=O)n(C)c2cn(CC#N)nc12 (single isomer, unassigned) [Compound A132b] | 1780 nM | 0.33 µM
4 | CC[C@H]1CN(C(C)c2ccccc2OC)[C@H](CC)CN1c1cc(=O)n(C)c2cn(CC#N)nc12 (single isomer, unassigned) [Compound A106a] | 2190 nM | > 10 µM
5 | C=C(C)n1cc2c(n1)c(N1C[C@@H](CC)N(C(C)c3ccc4nccnc4c3)C[C@@H]1CC)cc(=O)n2C (stereo partly drawn) [Compound A25, 7-((2S,5R)-2,5-diethyl-4-(1-(quinoxalin-6-yl)ethyl)piperazin-1-yl)-4-methyl-2-(prop-1-en-2-yl)-2,4-dihydro-5H-pyrazolo[4,3-b]pyridin-5-one] | 510 nM | 0.054 µM
6 | CC[C@H]1CN(C(C)c2cnn(CC)c2C(F)(F)F)[C@H](CC)CN1c1cc(=O)n(C)c2cn(CC#N)nc12 (single isomer, unassigned) [Compound A119a] | 15 nM | 8.09 µM
7 | CC(c1ccc2nccnc2c1)N1C[C@H](C)N(c2cc(=O)[nH]c3cn(CC#N)nc23)C[C@H]1C (stereo partly drawn) [Compound A102, 2-(7-((2S,5R)-2,5-dimethyl-4-(1-(quinoxalin-6-yl)ethyl)piperazin-1-yl)-5-oxo-4,5-dihydro-2H-pyrazolo[4,3-b]pyridin-2-yl)acetonitrile] | 288 nM | > 10 µM
8 | CC[C@H]1CN(C(C)c2cc3ccccc3c(C)n2)[C@H](CC)CN1c1cc(=O)n(C)c2cn(CC#N)nc12 (some centres unmarked) [Compound A367] | 3590 nM | 19.3 µM
9 | CC#CCn1cc2c(n1)c(N1C[C@@H](CC)N(C(C)c3cc4ccccc4cn3)C[C@@H]1C)cc(=O)n2C (stereo partly drawn) [Compound A393, 2-(but-2-yn-1-yl)-7-((2S,5R)-5-ethyl-4-(1-(isoquinolin-3-yl)ethyl)-2-methylpiperazin-1-yl)-4-methyl-2,4-dihydro-5H-pyrazolo[4,3-b]pyridin-5-one] | 795 nM | 0.108 µM
10 | Cc1cnc2ccc([C@@H](C)N3C[C@H](C)N(c4cc(=O)n(C)c5cn(CC#N)nc45)C[C@H]3C)cc2n1 [Compound A269c, 2-(7-((2S,5R)-2,5-dimethyl-4-((R)-1-(3-methylquinoxalin-6-yl)ethyl)piperazin-1-yl)-4-methyl-5-oxo-4,5-dihydro-2H-pyrazolo[4,3-b]pyridin-2-yl)acetonitrile] | > 10000 nM | > 10 µM
11 | CC[C@H]1CN(C(C)c2nn(CC)cc2C#N)[C@H](CC)CN1c1cc(=O)n(C)c2cn(CC#N)nc12 (stereo partly drawn) [Compound A240, 3-(1-((2R,5S)-4-(2-(cyanomethyl)-4-methyl-5-oxo-4,5-dihydro-2H-pyrazolo[4,3-b]pyridin-7-yl)-2,5-diethylpiperazin-1-yl)ethyl)-1-ethyl-1H-pyrazole-4-carbonitrile] | 2010 nM | 0.948 µM
12 | CC[C@H]1CN(C(C)c2cn3ccccc3n2)[C@H](CC)CN1c1cc(=O)n(C)c2cn(CC#N)nc12 (some centres unmarked) [Compound A388] | 1250 nM | 1.39 µM
13 | CC[C@H]1CN(C(C)c2ccnn2CC(F)F)[C@H](CC)CN1c1cc(=O)n(C)c2c[nH]nc12 (stereo partly drawn) [Compound A228, 7-((2S,5R)-4-(1-(1-(2,2-difluoroethyl)-1H-pyrazol-5-yl)ethyl)-2,5-diethylpiperazin-1-yl)-4-methyl-2,4-dihydro-5H-pyrazolo[4,3-b]pyridin-5-one] | 9200 nM | > 10 µM
14 | CC[C@H]1CN(C(C)c2ccc3c(c2)OCCO3)[C@H](CC)CN1c1cc(=O)n(C)c2cn(CC#N)nc12 (stereo partly drawn) [Compound A126, 2-(7-((2S,5R)-4-(1-(2,3-dihydrobenzo[b][1,4]dioxin-6-yl)ethyl)-2,5-diethylpiperazin-1-yl)-4-methyl-5-oxo-4,5-dihydro-2H-pyrazolo[4,3-b]pyridin-2-yl)acetonitrile] | 7.2 nM | 0.449 µM
15 | CC(c1ccc2ncc(C3CC3)nc2c1)N1C[C@H](C)N(c2cc(=O)n(C)c3cn(CC#N)nc23)C[C@H]1C (stereo partly drawn) [Compound A310, 2-(7-((2S,5R)-4-(1-(3-cyclopropylquinoxalin-6-yl)ethyl)-2,5-dimethylpiperazin-1-yl)-4-methyl-5-oxo-4,5-dihydro-2H-pyrazolo[4,3-b]pyridin-2-yl)acetonitrile] | 127 nM | 94.7 µM
16 | CC[C@H]1CN(C(C)c2nc3ccc(C(F)(F)F)cc3n2CC)[C@H](CC)CN1c1cc(=O)n(C)c2cn(CC#N)nc12 (single isomer, unassigned) [Compound A204a] | 3290 nM | > 10 µM
17 | CC[C@H]1CN(C(C)c2ccc(F)cc2OC)[C@H](CC)CN1c1cc(=O)n(C)c2cn(CC#N)nc12 (single isomer, unassigned) [Compound A71a] | 2100 nM | 42 µM
18 | CC(c1ccc2nccnc2c1)N1C[C@H](CCO)N(c2cc(=O)n(C)c3cn(CC#N)nc23)C[C@H]1C (stereo partly drawn) [Compound A145, 2-(7-((2S,5R)-2-(2-hydroxyethyl)-5-methyl-4-(1-(quinoxalin-6-yl)ethyl)piperazin-1-yl)-4-methyl-5-oxo-4,5-dihydro-2H-pyrazolo[4,3-b]pyridin-2-yl)acetonitrilecetonitrile] | 55 nM | 20.3 µM
19 | CC[C@@H]1CN(c2cc(=O)n(C)c3cn(CC#N)nc23)[C@@H]([C@@H](C)O)CN1C(C)c1ccc2nccnc2c1 (stereo partly drawn) [Compound A259, 2-(7-((2R,5R)-5-ethyl-2-((R)-1-hydroxyethyl)-4-(1-(quinoxalin-6-yl)ethyl)piperazin-1-yl)-4-methyl-5-oxo-4,5-dihydro-2H-pyrazolo[4,3-b]pyridin-2-yl)acetonitrile] | 380 nM | > 10 µM
20 | CC[C@H]1CN(C(C)c2cc3ccccc3n2CC)[C@H](CC)CN1c1cc(=O)n(C)c2cn(CC#N)nc12 (some centres unmarked) [Compound A176] | 93 nM | 5.67 µM
21 | COC(=O)C1CN(c2cc(=O)n(C)c3cn(CC#N)nc23)CCN1[C@H](C)c1ccc2nccnc2c1 (single isomer, unassigned) [Compound A173b] | > 10000 nM | > 10 µM
22 | CC(c1ccc2ncc(C(F)(F)F)nc2c1)N1C[C@H](C)N(c2cc(=O)n(C)c3cn(CC#N)nc23)C[C@H]1C (stereo partly drawn) [Compound A314, 2-(7-((2S,5R)-2,5-dimethyl-4-(1-(3-(trifluoromethyl)quinoxalin-6-yl)ethyl)piperazin-1-yl)-4-methyl-5-oxo-4,5-dihydro-2H-pyrazolo[4,3-b]pyridin-2-yl)acetonitrile] | 689 nM | 84.3 µM
23 | CC[C@H]1CN(C(C)c2ccc(OC3CCOC3)cc2)[C@H](CC)CN1c1cc(=O)n(C)c2cn(CC#N)nc12 (stereo partly drawn) [Compound A375, 2-(7-((2S,5R)-2,5-diethyl-4-(1-(4-((tetrahydrofuran-3-yl)oxy)phenyl)ethyl)piperazin-1-yl)-4-methyl-5-oxo-4,5-dihydro-2H-pyrazolo[4,3-b]pyridin-2-yl)acetonitrile] | 944 nM | 0.2 µM
24 | CC#CCn1cc2c(n1)c(N1C[C@@H](CC)N(C(C)c3ccc(C(F)(F)F)cc3F)C[C@@H]1CC)cc(=O)n2C (single isomer, unassigned) [Compound A334a] | 978 nM | 0.308 µM
25 | COc1cc(F)ccc1C(C)N1C[C@H](C)N(c2cc(=O)n(C)c3cn(CC#N)nc23)C[C@H]1C (stereo partly drawn) [Compound A248, 2-(7-((2S,5R)-4-(1-(2-omethoxy-4-fluorophenyl)ethyl)-2,5-dimethylpiperazin-1-yl)-4-methyl-5-oxo-4,5-dihydro-2H-pyrazolo[4,3-b]pyridin-2-yl)acetonitrile] | – | > 10 µM
26 | Cc1nc2ccc(C(C)N3C[C@H](C)N(c4cc(=O)n(C)c5cn(CC#N)nc45)C[C@H]3C)cn2n1 (mixture of isomers) [Compound A321] | – | > 150 µM
27 | CC[C@H]1CN([C@H](C)c2nc(Cl)cn2CC)[C@H](CC)CN1c1cc(=O)n(C)c2cn(CC#N)nc12 (single isomer, unassigned) [Compound A191b] | – | > 10 µM
28 | CC[C@H]1CN([C@H](C)c2ccc3nccnc3c2)[C@H](CC)CN1c1cc(=O)n(C(C)C)c2cn(CC#N)nc12 (single isomer, unassigned) [Compound A190b] | – | > 10 µM
29 | CC[C@H]1CN([C@H](C)c2ncccc2OC)[C@H](CC)CN1c1cc(=O)n(C)c2cn(CC#N)nc12 (single isomer, unassigned) [Compound A92b] | – | > 10 µM
